Experiments:
RGCs = assay: Retrograde Fluoro-Gold labeling of RGCs and RGC densities after optic nerve crush; assay type: in vivo, Wistar rats; conditions: two weeks after ON crush
Method: (§1) Forty five adult male Wistar rats weighing 150-180 g (7-8 weeks old) were used and grouped (Table 1). All manipulations were performed with animals under general anesthesia induced by an intramuscular injection of a mixture of ketamine (40 mg/kg body weight (BW)) and xylazine (4 mg/kg BW). In addition, topical 0.5% Alcaine eye drops (Alcon, Puurs, Belgium) were used to perform topical anesthesia.
(§2) After general anesthesia and topical Alcaine eye drop application, the ON was exposed and isolated. Care was taken to avoid damaging the small vessels around the ON. A vascular clip (60 g micro-vascular clip) was then applied to the ON 2 mm posterior to the globe for 30 seconds. After the surgery, Tobradex eye ointment (Alcon, Puurs, Belgium) was administered. The rats were kept on electric heating pads at 37° C. for recovery. The control group received a sham operation that entailed ON exposure without the crush. 4-PSB-2 (5 mg/kg in 0.2 mL phosphate-buffered saline) or phosphate buffered saline (PBS control) was immediately administered after ON crush once by subcutaneous injection.
With this technique, only the RGCs with intact axons projected to the SC were labeled with FG. The procedure was performed based on Chang et al (Exp. Eye Res., 2004, 118, 109-116). Briefly, one week before sacrificing, the rats were anesthetized using a ketamine (100 mg/kg) and Xylazine (10 mg/kg) mixture, and then placed in a stereotactic apparatus. […] One week after labeling, the eyeballs were harvested after euthanasia of the animals. The eyeballs were placed in 10% formalin and iii the whole retina was then carefully dissected, flattened. The retina was examined with a 400× epi-fluorescence microscope equipped with a filter set (excitation filter=350-400 nm; barrier filter=515 nm), as well as a digital camera and software. The retinas were examined for RGCs at a distance of 1 or 3 mm from the optic nerve head in order to provide the central and mid-peripheral RGC densities respectively (FIG. 1A). RGCs were counted in eight areas randomly of […]/each in the central (about 40% of the central area) (FIG. 1B), and eight areas randomly of 38,250 mm^2/each in the mid-peripheral (about 30% of the mid-periphery) regions of each retina. The averages of these areas were taken as the mean density of RGCs per retina. RGC survival percentage was defined as the number of RGCs in each treatment group divided by the number of RGCs in the sham operated retina, multiplied by 100.

COX-2 = assay: Immunoblotting and immunohistochemical analysis of COX-2 expression in the retina after ON crush; assay type: in vivo, Wistar rats; conditions: two weeks after ON crush, 5 mg/kg s.c. once, ratio to GAPDH, n=3, result in words
Method: as §1
(§3) After general anesthesia and topical Alcaine eye drop application, the ON was exposed and isolated. Care was taken to avoid damaging the small vessels around the ON. A vascular clip (60 g micro-vascular clip) was then applied to the ON 2 mm posterior to the globe for 30 seconds. After the surgery, Tobradex eye ointment (Alcon, Puurs, Belgium) was administered. The rats were kept on electric heating pads at 37° C. for recovery. […]
(§4) IHC of ED1 (CD68, a marker of macrophage/microglia) in the ONs and IHC of CD11b, iNOS and COX-2 in the retina using monoclonal antibodies (ED1, 1:50; CD11b, 1:20; AbD Serotec, Oxford, UK) or polyclonal antibodies (iNOS, 1:50; Cell signaling Inc. Beverly, Mass., USA; COX-2, 1:50; Santa Cruz, Calif., USA) were performed. […] For comparison, ED1 positive cells were counted in six HPF at the lesion site of ON (six rats in each group). Cd11b positive cells were counted in six HPF and three sections per eye were averaged. […]

RGC layer = assay: TUNEL assay in retinal sections after optic nerve crush; assay type: in vivo, Wistar rats; conditions: RGC layer of retina; two weeks after ON crush; 5 mg/kg s.c. once; n=6; sham 2.0±1.7, PBS 14.8±6.5
Method: as §1
as §3, with “recovery. The control group received a sham operation that entailed ON exposure without the crush.” for “recovery.”
To ensure the use of equivalent fields for comparison, all retinal frozen sections were prepared with retinas at 1-2 mm distance from the optic nerve head. […] The TUNEL positive cells in the RGC layer of each sample were counted in ten high powered fields (HPF, ×400 magnification), and three sections per eye were averaged.

[1] = test system: ED1 (CD68, a marker of macrophage/microglia); assay: Immunohistochemistry of ED1 in the ONs after optic nerve crush; assay type: in vivo, Wistar rats; conditions: lesion site of ON; two weeks after ON crush; 5 mg/kg s.c. once; n=6; sham 4.3±2.5, PBS 67.3±21.1
Method: as §1, §3
(§5) IHC of ED1 (CD68, a marker of macrophage/microglia) in the ONs and IHC of CD11b, iNOS and COX-2 in the retina using monoclonal antibodies (ED1, 1:50; CD11b, 1:20; AbD Serotec, Oxford, UK) or polyclonal antibodies (iNOS, 1:50; Cell signaling Inc. Beverly, Mass., USA; COX-2, 1:50; Santa Cruz, Calif., USA) were performed. […] For comparison, ED1 positive cells were counted in six HPF at the lesion site of ON (six rats in each group). Cd11b positive cells were counted in six HPF and three sections per eye were averaged.

Wistar rats = assay: Flash visual-evoked potentials (FVEPs) after optic nerve crush; assay type: in vivo; conditions: 2 weeks after ON crush; 5 mg/kg s.c. once; n=6; sham 83±3 ms, PBS 154±23 ms
Method: as §1, §2
For the functional evaluation of the ON, FVEPs were recorded 2 weeks after ON crush in 18 experimental rats. […]

Cd11b = assay: Immunohistochemistry of Cd11b in the retina after optic nerve crush; assay type: in vivo, Wistar rats; conditions: two weeks after ON crush, 5 mg/kg s.c. once, n=6, sham 2.3±1.7, PBS 40.0±9.7
Method: as §1, §3, §5

iNOS = assay: Immunoblotting and immunohistochemical analysis of iNOS expression in the retina after ON crush; assay type: in vivo, Wistar rats; conditions: two weeks after ON crush, 5 mg/kg s.c. once, ratio to GAPDH, n=3, result in words
Method: as §1, §3, §4

CC(=O)CCSc1ccccc1 [4-PSB-2, 4-(phenylsulfanyl)butan-2-one]
densities of RGCs in the central retina (RGCs; central retina, 5 mg/kg once by subcutaneous injection immediately after crush, n=6): 1342±473 /mm^2 | RGC survival, central retina (RGCs; central retina, relative to sham operated retina, 5 mg/kg s.c. once): 56.8 % survival | RGC survival rate increase as compared to the PBS-treated group, central retina (RGCs; central retina, vs PBS-treated group, p<0.05): approximately 35.7% | densities of RGCs in mid-peripheral retina (RGCs; mid-peripheral retina, 5 mg/kg once by subcutaneous injection immediately after crush, n=6): 915±244 /mm^2 | RGC survival, mid-peripheral retina (RGCs; mid-peripheral retina, relative to sham operated retina, 5 mg/kg s.c. once): 65.3 % survival | RGC survival rate increase as compared to the PBS-treated group, mid-peripheral retina (RGCs; mid-peripheral retina, vs PBS-treated group, p<0.05): ~35.3% | COX-2 expression in the retina (COX-2): prevented the increase | TUNEL positive cells in the RGC layer (RGC layer): 6.7±3.4 positive cells/HPG | ED1 positive cells/HPF [1]: 33.5±14.5 positive cells/HPF | latency of the P1 wave (FVEP) (Wistar rats): 118 ± 14 ms | Cd11b positive cells/HPF (Cd11b): 17.3±5.9 positive cells/HPF | iNOS expression in the retina (iNOS): prevented the increase

— patent US9907763B2, “Method of treating or preventing the visual function loss by using 4-(phenylsulfanyl)butane-2-one (4-PSB-2)” (NATIONAL SUN YAT-SEN UNIVERSITY, priority 2016, dated 2018)
